Reference: patent publication US20060141047A1, “Methods and compositions for delivery of catecholic butanes for treatment of obesity” (priority 2003, published 2006)
Where “and” joins values, the source holds several entries; their conditions need not be identical. Identical values can stand only once. Like-named read-outs stand apart in the source and are kept apart here.

Assays:
[1] = tested on: HPV-16 transformed immortal mouse epithelial cells (C3); details: intratumor injection, separately or together, U.S. Pat. No. 6,417,234 and 6,214,874; cited from earlier work
[2] = Maximum amount of M4N dissolved in Cremaphor EL/ethanol/saline solvent; type: physicochemical; details: 6% Cremaphor EL, 6% ethanol, 88% saline
Experimental: To assess the toxicity of prolonged intraperitoneal systemic treatment with M4N, and to determine a safe dosage for the following xenograft experiments, the following toxicity test was performed.

[3] = Toxicokinetic (TK) analysis of M4N serum concentration; type: in vivo, Beagle Dogs; details: dogs, CET or DMSO formulations, minimal toxicity
Experimental: Blood samples from the CET group animals were collected via the jugular vein on Study Day (SD) 1, SD 3, SD 6, and SD 8 at the following time points: predose, 0.25, 0.5, 1, 2, 4, 8, and 16 hours following the completion of the approximate 4-hour infusion.
Blood samples from the DMSO group animals were collected via the cephalic vein on SD 1, SD 3, SD 6, and SD 8 at the following time points: predose, 0.25, 0.5, 1, 2, 4, 8, and 16 hours following the final injection dose of M4N-DMSO.
Blood samples collected from both groups of animals were processed for plasma and serum for TK analysis.
The plasma and serum samples were sent to MedTox Laboratories, the Sponsor's designated laboratory for TK analysis. TK analysis of M4N plasma and serum concentration-time data was performed using a validated method (M200406) by MedTox Laboratories and analyzed by noncompartmental methods to obtain estimates of toxicokinetic parameters (where data allow), but not necessarily limited to, Cmax, Tmax and AUC.

[4] = Tissue distribution of 3H-M4N after a single intraperitoneal or intravenous injection; type: in vivo, mice; details: 3 hours post-injection, i.p. or i.v.
Experimental: M4N Tissue Distribution Studies Using 3H—M4N. […] The insoluble pellet was then further extracted with EtOH.
A mixture of tritiated and cold M4N was dissolved in a 6% Cremaphor EL, 6% ethanol, 88% saline solvent then injected intraperitoneally (i.p.) and intravenously (i.v.) via tail vein into mice. At 3 hours post-injection, the organs and blood were harvested and weighed, and the M4N was extracted. […] M4N was successfully distributed to various organs at 3 hours post-injection by both i.p. and i.v. routes of administration. […] Corroborating this, a very similar profile of distribution was observed using an oral route of administration described below. The majority of the recovered radioactivity localized to the gastrointestinal tract organs: the stomach, small intestine, caecum, and large intestine, in the range of 3 μg to 20 μg of M4N per gram of tissue.

[5] = mouse, in vivo, ip
Experimental: M4N Tissue Distribution Studies Using 3H—M4N. Harlan ICR mice or C3 cell-induced tumor-bearing C57bl/6 mice were injected via tail vein or intraperitoneally with 100 μL of Cremaphor-ethanol based solvent containing 100 μCi of tritiated M4N and 60 mM of cold M4N. At the specified time post-injection, the mice were sacrificed, the organs and blood were collected, weighed, then dissolved overnight in 4 M guanidine isothiocyanate (GITC). The insoluble pellet was then further extracted with EtOH. Tritium content of both the GITC extract and the EtOH extract was measured on a Packard scintillation counter and the quantity of M4N in each organ was calculated based on the specific activity of the inoculum.
To determine the distribution of M4N in tissues over time following a single application, and also to assess the ability to deliver M4N to a distant tumor, six C3 cell-induced tumor bearing mice (A-F) were treated i.p. with ^3H— M4N as described above. At 4 hours, 6 hours, 18 hours, and 6 days post-injection, the quantities of ^3H— M4N in various tissues and the tumors were measured.

[6] = dogs
Experimental: In this example the Maximal Tolerable Dose (MTD) of two different formulations of M4N [Cremaphor-Ethanol (CET) or Dimethyl Sulfoxide (DMSO)] to male and female Beagle Dogs was determined.
Dogs were treated prophylactically with an analgesic and antibiotic on the day of surgery and with antibiotics and/or analgesics following surgery (according to Gene Logic Inc. SOP Nos. 324.0.2, 325.0.1, and 326.0.2, as appropriate.) Other treatments were provided as recommended by the staff veterinarian. The catheter lines were flushed with saline during the postoperative recovery period with a frequency deemed appropriate by the Study Director.
Thus the M4N-DMSO group animals were administered with M4N-DMSO with eight intravenous injections via the non-VAP jugular vein every 30 minutes over a 4-hour period. This frequency of delivery mimicked the delivery of the test article using the infusion pump.
Animals from the CET group were observed during the entire infusion period and for at least one hour following end of infusion. The dogs in the DMSO group were observed throughout the jugular vein injection period and for at least one hour following the last (eighth) injection.

[7] = Fresh weights of isolated organs after 20 week feeding with fat-rich diet containing M4N; type: in vivo, mice
Experimental: (§1) While no definite conclusions can be made regarding most organs due to the small size of the populations tested, a decrease in adipocyte (fat cells) weight was nevertheless significant (0.84 g vs. 0.196 g) following a 20 week feeding with a fat-rich diet containing M4N. In particular, fat tissues from two control mice (C24 and C25) which were fed a fat-rich diet without M4N were isolated and incubated with CREM solvent or with CREM solvent plus M4N for a total period of 6 days (first extract 72 hours and second extract for an additional 72 hours). The fat cell weights were measured at 0 time, the third day and the sixth day following incubation in CREM solvent and without M4N.

[8] = Short-term oral feeding, M4N tissue levels by HPLC; type: in vivo, mice
Experimental: (§2) Tissue Distribution and Toxicity Analysis Following Short-Term and Long-Term Oral Feeding. For short-term feeding experiments, 30 mg of M4N dissolved in 300 μL castor oil was orally administered to each of 6 mice. At 2 h, 4 h, and 8 h post-administration time points, 2 mice were sacrificed, the organs and blood were collected, and the M4N extracted and quantitated as described below. In long-term feeding experiments, mice were fed food balls consisting of M4N dissolved in corn oil and Basal Mix (Harlan Teklad; Madison, Wis.; Cat. # TD 02273) for 14 weeks. Food balls weighed 9 g and contained 242 mg M4N each. Two mice, one male and one female, were reserved for long-term drug retention studies; and fourteen mice, both male and female, were used for long-term drug toxicity studies. At the end of feeding, mice were sacrificed, the organs and blood were collected, and the M4N extracted and quantitated as described below.
M4N Extraction and HPLC Analysis Following Oral Feeding. […] The dried samples were then analyzed quantitatively by HPLC and M4N was identified by mass spectroscopy using pure M4N as a standard.
In samples from short-term fed mice, dialysis was performed to further purify M4N from the tissue extracts. […] The dialysates were dried on benchtop and in a speed-vac, then analyzed by HPLC.
HPLC Quantitation of M4N. […]

[9] = type: in vivo; details: for % Weight Change / Weight on End Date: M4N-fed mice
Experimental: as §2, with “In long-term feeding experiments, mice were fed food balls consisting of M4N dissolved in corn oil and Basal Mix (Harlan Teklad; Madison, Wis.; Cat. # TD 02273) for 14 weeks.” left out
In particular, weight was measured on a bi-weekly or monthly basis. […] However, to assess long-term drug toxicity, only the mice that were treated for more than 20 weeks were compared. A total of 14 mice were treated for more than 20 weeks, 6 M4N-treated and 8 control mice. Since females generally eat less than males and have lower body weight, comparisons were drawn between mice of the same sex. […] The fact that the control mice, both male and female, consumed much more food than the M4N-treated mice evidences a greater preference for food in the control subjects.

[10] = tested on: fat tissues; assay: Incubation of isolated fat tissue with CREM solvent plus M4N, fat weight; design: species or system mice
Experimental: as §1

[11] = tested on: mammary carcinoma MX-1 xenograft; details: intratumor injection or topical application, athymic mice, U.S. Pat. No. 5,008,294; cited from earlier work

C[C@H](Cc1ccc(OC(=O)CN(C)C)c(OC(=O)CN(C)C)c1)[C@@H](C)Cc1ccc(OC(=O)CN(C)C)c(OC(=O)CN(C)C)c1 [G4N, meso-1,4-bis[3,4-(dimethylaminoacetoxy)phenyl]-(2R,3S)-dimethylbutane]
Suppression of tumor growth [1]: some evidence of suppression of tumor growth

COc1ccc(C[C@@H](C)[C@@H](C)Cc2ccc(OC)c(OC)c2)cc1OC [M4N, meso-1,4-bis(3,4-dimethoxyphenyl)-2,3-dimethylbutane]
Maximum amount of M4N which may be dissolved in the solvent [2]: 20 mg/mL | Blood levels of M4N achieved [3]: up to 14,000 ng/ml | M4N detected in heart or blood [4]: Little or no M4N | M4N present in liver and fat [4]: Significant quantities | M4N in the tumor [5]: 294 ng M4N per gram of wet tumor | M4N tissue levels at 6 days post-injection relative to levels at 6 hours [5]: 5-10% | Time of peak M4N tissue levels [5]: approximately 6 hours | Dose safely administered by intravenous infusion over four hours ([6]; CET vehicle): up to 10 mg/kg | Dose safely administered by intravenous infusion over four hours ([6]; DMSO vehicle): up to 100 mg/kg | Fresh organ weight, Bladder ([7]; Female, 20 week feeding): 0.034 g | Fresh organ weight, Caecum ([7]; Female, 20 week feeding): 0.162 g | Fresh organ weight, Colon ([7]; Female, 20 week feeding): 0.195 g | Fresh organ weight, Heart ([7]; Female, 20 week feeding): 0.107 g | Fresh organ weight, Kidney ([7]; Female, 20 week feeding): 0.3 g | Fresh organ weight, Liver ([7]; Female, 20 week feeding): 1.153 g | Fresh organ weight, Lung ([7]; Female, 20 week feeding): 0.205 g | Fresh organ weight, Pancreas ([7]; Female, 20 week feeding): 0.18 g | Fresh organ weight, Small Intestine ([7]; Female, 20 week feeding): 1.193 g | Fresh organ weight, Spleen ([7]; Female, 20 week feeding): 0.08 g | Fresh organ weight, Stomach ([7]; Female, 20 week feeding): 0.243 g | Fresh weight, Fat ([7]; Female, 20 week feeding): 0.509 g | Fresh organ weight, Bladder ([7]; Male, 20 week feeding): 0.026 g | Fresh organ weight, Caecum ([7]; Male, 20 week feeding): 0.133 g | Fresh organ weight, Colon ([7]; Male, 20 week feeding): 0.186 g | Fresh organ weight, Heart ([7]; Male, 20 week feeding): 0.319 g | Fresh organ weight, Kidney ([7]; Male, 20 week feeding): 0.35 g | Fresh organ weight, Liver ([7]; Male, 20 week feeding): 1.44 g | Fresh organ weight, Lung ([7]; Male, 20 week feeding): 0.156 g | Fresh organ weight, Pancreas ([7]; Male, 20 week feeding): 0.121 g | Fresh organ weight, Small Intestine ([7]; Male, 20 week feeding): 1.44 g | Fresh organ weight, Small Vesicles ([7]; Male, 20 week feeding): 0.154 g | Fresh organ weight, Spleen ([7]; Male, 20 week feeding): 0.065 g | Fresh organ weight, Stomach ([7]; Male, 20 week feeding): 0.177 g | Fresh organ weight, Testes ([7]; Male, 20 week feeding): 0.189 g | Fresh weight, Fat ([7]; Male, 20 week feeding with fat-rich diet): 0.196 g | M4N in each tissue ([8]; 2 hours post-feeding, 30 mg M4N in castor oil, oral): < 2 ng per gram tissue | Time of peak M4N levels ([8]; post-feeding, single oral 30 mg M4N): roughly 4 hours | Suppression of tumor growth [1]: some evidence of suppression of tumor growth | Average % Weight Change ([9]; Female mice treated 20 weeks): 24.9% | Average Amount of Food Consumed ([9]; Female mice treated 20 weeks): 258.8 g | % Weight Change ([9]; length of treatment 8 weeks): 20.5% and 18.1% | Weight on End Date ([9]; length of treatment 8 weeks): 26.4 g and 24.1 g | Weight on End Date ([9]; length of treatment 9 weeks): 18.9 g and 24.2 g and 19.7 g | % Weight Change ([9]; length of treatment 11 weeks): 11.8% | Weight on End Date ([9]; length of treatment 11 weeks): 20.8 g | Average % Weight Change ([9]; Male mice treated 20 weeks): 21% | Average Amount of Food Consumed ([9]; Male mice treated 20 weeks): 225 g and 225.0 g | Effect on appetite ([9]; both male and female mice, long-term oral feeding): reduced the appetite | Effect on body weight ([9]; mice, systemic or oral administration): caused weight loss | Toxic effects on female mice ([9]; mouse, in vivo, po): did not have toxic effects | Fat Weight After First Extraction ([10]; fat tissue of mouse C25, 72 hours in CREM solvent + 21.4 mg M4N): 0.481 g | Fat Weight After Second Extraction ([10]; fat tissue of mouse C25, additional 72 hours (6 days total) in CREM solvent + M4N): 0.059 g

CC(Cc1ccc(O)c(O)c1)C(C)Cc1ccc(O)c(O)c1 (stereo not drawn) [NDGA, nordihydroguaiaretic acid]
Inhibition of tumor growth [11]: Some evidence of inhibition of tumor growth
